# Assay results reported in patent US20260108505A1, “EYE DROP COMPOSITION COMPRISING NOVEL MOLECULAR ASSOCIATION OF AXITINIB AND METHOD FOR PREPARING THE SAME” (SCAI THERAPEUTICS CO., LTD., priority 2024, published 2026).
# Marks after values point to notes of the source that are not given here.
# Tests used:
# [1] = Solubility of SCAI-Form and API at pH 1 and pH 2; type: physicochemical; conditions: for Dissolution concentration at pH 1: stirred 15 minutes at 5 mg/mL, diluted 10 times with DW, measured value x 10; for Dissolution concentration at pH 1 / Dissolution concentration at pH 2: filtered; for Dissolution concentration at pH 2: stirred 15 minutes at 1 mg/mL
# Experimental: Method for measuring solubility at pH 1: Stirred for 15 minutes at a concentration of 5 mg/mL, and then filtered, diluted 10 times with DW, and analyzed. (The value calculated as [measured value×10] is described in the results)
# Method for measuring solubility at pH 2: Stirred for 15 minutes at a concentration of 1 mg/mL, and then filtered, and analyzed.
# [2] = test system: grade 3/4 CNV lesions; test: Laser-induced CNV monkey model, optical coherence tomography (OCT): retinal thickness; type: in vivo, rhesus monkeys; conditions: n = 6 eyes; for Percent change of retinal thickness (Mean±SD): relative to (baseline − before laser induction), Example 15 (0.08%) eye drops
# From the text: (§1) In this experiment, neovascularization was induced by damaging the choroid of both eyes using a laser in a monkey animal model, and then treated with drugs, and the efficacy is compared and evaluated by performing fundus fluorescein angiography (FFA) and optical coherence tomography (OCT) and measuring the neovascular area and spot number in the damaged area and the retinal lesion thickness.
# (§2) Experimental CNV in monkey eyes was induced using a laser photocoagulation system (Vitra 532 nm, Quantel Medical, France).
# (§3) Laser parameters: laser wavelength of 532 nm; spot size of 50 μm; energy of 600-800 mW; exposure time of 0.1 s.
# (§4) A total of eight rhesus monkeys were used to induce CNV. The animals were anesthetized by intramuscular injection of ketamine hydrochloride (20 mg/kg) and dexmedetomidine hydrochloride (0.03 mg/kg), and then both eyes of each monkey were burned at 8-9 points around the macula, approximately one disc diameter from the macula. Care was taken not to aim the laser at the macula. The force used depended on the morphology of the subretinal bleb indicating a perforation of the Bruch's membrane. If no bled formed, higher energy was used at the next point. Color fundus photography (Retinal Camera TRC-50DX, Topcon Healthcare, Japan) was performed immediately after laser photocoagulation to observe the laser dots. Fundus fluorescein angiography (FFA) examination was performed 12 days after laser induction. Modeling was assessed as successful if there was one or more fluorescence leakage point of grade III and/or grade IV. Animals were enrolled in treatment and randomly divided into two groups based on the total leakage area of grade III and IV laser spots (Tables 10 and 11). The monkeys that were not included were returned to the PRIMED Animal Care Department.
# Optical coherence tomography (OCT): Heidelberg Spectralis OCT plus.
# (§5) Frequency: a total of 4 times, 1 time before laser photocoagulation, 1 time before administration (−Day 2), 1 time on Day 14 and 1 time on Day 28 after the first administration.
# OCT image acquisition protocol: FP and FFA images were taken, and then OCT scans were performed. Efforts were made to maintain uniformly illuminated and well-focused fundus images and high-quality OCT. Once the focus was aligned on the central macula by observation of the monitor screen, the monkey's eyes were identified by applying a high-speed macular scan process. Retinal thickness was automatically measured using software embedded in the Heidelberg OCT by measuring the distance between the internal border membrane and Bruch's membrane. Two membrane lines were found manually. The location with the maximum thickness around the grade III or IV point was selected for measurements. Heidelberg OCT unique has technical characteristics that ensure longitudinal measurements of retinal thickness at the same location.
# (§6) Data analysis consisted of total area of fluorescein leakage points at one of the registered photocoagulation points, volume of fluorescein leakage points, and retinal thickness. Animal observations, photography, fundus and slit-lamp examinations were recorded and summarized in a report. The mean and standard deviation of the percent change in the total area of fluorescein leakage spots and the percent change in retinal thickness were calculated. Microsoft Office Excel 2013 and SPSS Statistics 13.0 were used for data processing and statistical analysis.
# [3] = test system: grade 3/4 CNV lesions; test: Laser-induced CNV monkey model, fundus fluorescein angiography (FFA): leakage area and spot number; type: in vivo, rhesus monkeys; conditions: n = 6 eyes
# From the text: as §1, §2, §3, §4, §5
# FFA image acquisition protocol: The FP images were taken, and then FFA was performed. After intravenous infusion of 10% sodium fluorescein (Alcon Laboratories, USA) at a dose of 0.075 mL/kg, rapid posterior polar photographs of the right eye were taken. The left eye was then used to monitor leakage of fluorescein related to the CNV lesion at serial time points (1, 5, and 10 minutes).
# To quantify the area of CNV leakage, the total area of hyperfluorescence per eye was measured in late FFA images using Image J software (version 1.52a, Wayne Rasband National Institutes of Health, USA). Images from the later stage (10 min) were also used to calculate the amount and grade of CNV spots (Table 12).
# as §6
# [4] = Baseline (after induction, before treatment), group later given Example 15 eye drops
# [5] = Day 14, Example 15 (0.08%) eye drops 4 times/day
Dissolution concentration at pH 1 [1] [mg/mL],Dissolution concentration at pH 2 [1] [mg/mL],"Solubility of SCAI-Form relative to API ([1]; from Table 6, pH 1 and pH 2)",Dissolution concentration at pH 1 ([1]; listed as SCAI-Form) [mg/mL],Dissolution concentration at pH 2 ([1]; listed as SCAI-Form) [mg/mL],SMILES,"Average retinal thickness of grade 3/4 CNV lesions (Mean±SD) [2, 4] [μm]","Average retinal thickness of grade 3/4 CNV lesions (Mean±SD) [2, 5] [μm]",Percent change of retinal thickness (Mean±SD) ([2]; Day 14) [%],"Average retinal thickness of grade 3/4 CNV lesions (Mean±SD) ([2]; Day 28, Example 15 (0.08%) eye drops 4 times/day, p < 0.01 vs baseline) [μm]","Percent change of retinal thickness (Mean±SD) ([2]; Day 28, p < 0.01 vs vehicle) [%]","Leakage area of grade 3/4 CNV lesions (Mean±SD) [3, 4] [mm^2]","Amount of grade 3/4 leakage spots [3, 5]","Leakage area of grade 3/4 CNV lesions (Mean±SD) ([3]; Day 14, Example 15 (0.08%) ophthalmic solution, 1 drop 50 μL, 4 times/day topical) [mm^2]","Percent change of leakage area (Mean±SD) ([3]; Day 14 vs baseline, Example 15 (0.08%) eye drops 4 times/day) [%]","Amount of grade 3/4 leakage spots ([3]; Day 28, Example 15 (0.08%) eye drops 4 times/day)","Leakage area of grade 3/4 CNV lesions (Mean±SD) ([3]; Day 28, Example 15 (0.08%) ophthalmic solution, 1 drop 50 μL, 4 times/day topical, p < 0.05 vs baseline)","Percent change of leakage area (Mean±SD) ([3]; Day 28 vs baseline, Example 15 (0.08%) eye drops 4 times/day, p < 0.05 vs vehicle) [%]","Amount of grade 3/4 leakage spots ([3]; baseline, group later given Example 15 eye drops)"
2.661,0.073,,,,"CNC(=O)c1ccccc1Sc1ccc2c(/C=C/c3ccccn3)n[nH]c2c1 [API, axitinib]",,,,,,,,,,,,,
,,about twice,4.363,0.171,"CNC(=O)c1ccccc1Sc1ccc2c(/C=C/c3ccccn3)n[nH]c2c1 [SCAI-005, axitinib]",430 ± 45,406 ± 68,−26.0 ± 26.3,358 ± 40,−61.4 ± 16.0,9.01 ± 2.25,47*,9.65 ± 4.85,4.5 ± 39.1,43*,6.46 ± 3.30* mm^2,−30.2 ± 28.9,53
